Test results published in patent US6784172B2, “Processes for preparation of cyclopenta[b][1,4]diazepino[6,7,1-hi]indoles and derivatives” (Wyeth, priority 2000, dated 2004).

melting point	Structure (SMILES)
111 to 113 °C	CC(=O)N1CCN2c3c(cccc3C3CCCC32)C1 (racemic) [Example 3, 3-Acetyl-1,2,3,4,8,9,10,10a-octahydro-7bH-cyclopenta[b][1,4]diazepino[6,7,1-hi]indole]
66 to 68 °C	c1cc2c3c(c1)c1c(n3CCNC2)CCC1 [Example 1, 1,2,3,4,9,10-Hexahydro-8H-cyclopenta[b][4,1]diazepino[6,7,1-hi]indole]
